How the values were obtained:
P3 SCL = assay: In vivo play-off phage auditioning, P3 SCL tumor; design: species or system P3 stem cell-like glioblastoma in athymic nude mice; details: phage-displayed peptide; equimolar mix, i.v. 1 × 10^10 pfu/mouse, 2 h circulation, perfusion; Ion-Torrent sequencing; mean, N = 3 mice
Experimental: (§1) Athymic nude mice (Hsd/Athymic Fox1 nu Harlan) were purchased from Envigo (Netherlands) and maintained under standard housing conditions of the Animal Facility of the Institute of Biomedicine and Translational Medicine, University of Tartu (Tartu, Estonia). For orthotropic GBM tumor models, we used NCH421K, P13, and P3 stem cell-like, WT-GBM cells. The individual GBM cells around 2–3 × 10^5 in 3 μL PBS were intracranially implanted into mice brain 2 mm right and 1 mm anterior to the bregma. U87-MG and PC3 subcutaneous models were induced by injecting 2–9 × 10^6 cells in 100 µl PBS subcutaneously into the right flank of 11–15 week old male and female nude mice. All animal experiments were performed in accordance with the procedures approved by the Committee of Animal Experimentation of Estonian Ministry of Agriculture, permits #42 and #48.
(§2) In vivo play-off was used for internally controlled and competitive systemic phage homing studies in mice bearing tumor xenografts. Phages displaying the candidate TNC-C binding peptides and control peptides were individually amplified and purified by precipitation with PEG-8000 (Sigma-Aldrich, St. Louis, MO, USA), followed by […] gradient ultracentrifugation and dialysis. The phages were pooled at equimolar representation (Table 1 for details) and injected iv at 1 × 10^10 pfu (in 200 µl PBS) in tumor-bearing mice, circulated for 2 h, followed by anesthesia and intracardial perfusion with DMEM. The tumors and organs were collected in lysogeny broth (LB) medium containing 1% NP40, and the tissues were homogenized using a hand-held homogenizer. Phages in the tissue lysate were amplified in E.coli, purified by precipitation with PEG-8000, and DNA was extracted using a DNA extraction kit (High Pure PCR Template Preparation Kit; Roche, Basel, Switzerland). Next-generation sequencing of phage genomic DNA with Ion Torrent system (Thermo Fisher Scientific, Waltham, MA, USA) was used to evaluate the representation of each peptide-phage in the input mixture, in tumors and control organs. The FASTQ data from Ion Torrent were processed using a custom python script that identified the barcodes, constant flanking residues, and extracted the reads of the correct length.

Norm. brain = assay: In vivo play-off phage auditioning, normal brain; design: species or system athymic nude mice; details: phage-displayed peptide; equimolar mix, i.v. 1 × 10^10 pfu/mouse, 2 h circulation, perfusion; Ion-Torrent sequencing; mean, N = 3 mice
Experimental: as §2

P13 = assay: In vivo play-off phage auditioning, P13 tumor; design: species or system P13 glioblastoma in athymic nude mice; details: phage-displayed peptide; equimolar mix, i.v. 1 × 10^10 pfu/mouse, 2 h circulation, perfusion; Ion-Torrent sequencing; mean, N = 3 mice
Experimental: as §1, §2

recombinant TNC-C = assay: Cell-free phage binding to TNC-C; design: species or system human; details: individual T7 phage clones; Ni-NTA magnetic beads coated with hexahistidine-tagged TNC-C
Experimental: For biopanning on recombinant human TNC-C, we used NNK-encoded CX7C and X7 peptide T7 phage libraries with diversity ~5 × 10^8. Throughout our screens, the selected phages were amplified following plate amplification protocol. The 1st and 4th rounds of biopanning were performed on TNC-C immobilized on Costar 96-Well ELISA plate (#3590, Corning Life Sciences, Tewksbury, MA, USA). Briefly, the multiwell plates were coated with 20 µg/ml recombinant TNC-C in 100 µl of PBS overnight at 4 °C, followed by blocking with 1% bovine serum albumin (BSA) in PBS overnight at 4 °C. The phage library (5 × 10^8 pfu in 100 µl of PBS-BSA) was incubated overnight at 4 °C, followed by 6 washes with PBS containing 1% BSA and 0.1% Tween-20 (washing buffer) to remove background phages, and by phage rescue and amplification in E. coli strain BLT5403 (Novagen, EMD Biosciences, MA, USA)[8]. The subsequent rounds of selection were performed on Ni-NTA Magnetic Agarose Beads (QIAGEN, Hilden, Germany) coated with His-6X tagged TNC-C (30 µg/10 µl beads) at room temperature for 1 h in 400 µl of PBS. The TNC-C beads were washed 3 times with washing buffer, followed by incubation with phages in (5 × 10^8 pfu in 100 µl in washing buffer) at room temperature for 1 h. The background phages were removed by rinsing 6 times with washing buffer, and the bound phages were eluted with 1 ml of PBS containing 500 mM Imidazole and 0.1% NP40.
The eluted phages were titered and amplified for a next round of selection. After 5 rounds of selection, peptide-encoding DNA from a set of 48 phage clones was subjected to Sanger sequencing of peptide-encoding phage DNA[18],[22]. For cell-free binding studies with individual phage clones were incubated with Ni-NTA magnetic beads coated with hexahistidine-tagged TNC-C as above. RPARPAR phage binding to NRP-1-coated beads was used as a positive control. Phage clones displaying heptaglycine peptide (GGGGGGG, G7), or insertless phage clones were used as negative controls. […]
Fig. S13. NRP -1-dependent internalization of PL3 -functionalized AgNPs […]
Supplementary Materials and Methods
Cloning, expression , and purification of TNC-C
Vector Construction. A pF1K (Promega, # FXC00319) derivative plasmid containing full -length cDNA of TNC was used for PCR amplification of cDNA region of TNC-C with Phusion Hot Start II High -Fidelity DNA Polymerase (Thermo Fisher Scientific Inc # F -537L; primer pairs:
5′- CTCCTCT […] -3′ and 5′ -
CAGACA CTCGAG TTATCA TGTAACAATCTC -3′ for domain TNC -C. NdeI and XhoI restriction sites underlined ). The fragments were cloned in the pET28a+ plasmid for TNC -C expression as a n N-terminally His -tagged protein .
Expression and purification of TNC-C. The pET28a+ TNC-C plasmid was used for transformation of E. coli BL21 Rosetta 2 (DE3) pLysS cells (Novagen, #70956). The protein expression was induced by addition of isopropyl β-D-1-thiogalactopyranoside (IPTG) (Sigma, # I6758) to 0.5 mM final concentration and the bacteria were culture d at 18 °C for 16h . Cells were […]
collected by centrifugation, resuspended in ice-cold IMAC buffer (25mM Tris-HCl, 400mM NaCl, 25mM imidazole pH 8, containing EDTA-free protease inhibitor cocktail and DNase I) and lysed by sonification (Bandelin Sonopuls HD 2070, Germany). The cleared bacterial lysate was purified using HiTrap IMAC HP column s (GE Healthcare # 17 -0920-05) on ÄKTA purification system (GE Healthcare ), and the eluate was dialyzed against PBS using 3.5 kDa cut - off 3mL Slide-A-Lyzer Dialysis Cassettes (Thermo Scientific #66330). TNC-C concentration was determined by bicinchoninic acid assay (Thermo Scientific #23227) , and the purity of the proteins was assessed by SDS -PAGE. Mass spectrometry and de novo peptide sequencing were used to confirm the size and sequence of the purified proteins . His-tagged NRP-1 b1b2 domain was expressed and purified as described (Teesalu et al., 2009) .
Single-chain antibodies: The cDNA sequences encoding TNC-C-G11-scFV were retrieved from […]

U87-MG = assay: In vivo play-off phage auditioning, U87-MG tumor; design: species or system human glioblastoma in athymic nude mice; details: phage-displayed peptide; equimolar mix, i.v. 1 × 10^10 pfu/mouse, 2 h circulation, perfusion; Ion-Torrent sequencing; mean, N = 3 mice
Experimental: as §1, §2

PC3 = assay: In vivo play-off phage auditioning, PC3 tumor; design: species or system prostate carcinoma in athymic nude mice; details: phage-displayed peptide; equimolar mix, i.v. 1 × 10^10 pfu/mouse, 2 h circulation, perfusion; Ion-Torrent sequencing; mean, N = 3 mice
Experimental: as §1, §2

WT-GBM = assay: In vivo play-off phage auditioning, WT-GBM tumor; design: species or system murine WT-GBM glioblastoma in athymic nude mice; details: phage-displayed peptide; equimolar mix, i.v. 1 × 10^10 pfu/mouse, 2 h circulation, perfusion; Ion-Torrent sequencing; mean, N = 3 mice
Experimental: as §1, §2

| Substance | Representation of phage in tumors, P3 SCL (P3 SCL) [fold G7 control phage] | Representation of phage in control brain tissue (Norm. brain) (Norm. brain) [fold G7 control phage] | Representation of phage in tumors, P13 (P13) [fold G7 control phage] | TNC-C binding (fold G7 control phage) (recombinant TNC-C) | Representation of phage in tumors, U87-MG (U87-MG) [fold G7 control phage] | Representation of phage in tumors, PC3 (PC3) [fold G7 control phage] | Representation of phage in tumors, WT-GBM (WT-GBM) [fold G7 control phage] |
| --- | --- | --- | --- | --- | --- | --- | --- |
| CSRRGILRAKPAAALE [Clone-4] | 0.9 | 0.1 | 0.8 | 4889 | 1.1 | 1.2 | 1.5 |
| CQRMGVVGAKLAAALE [Clone 36] |  |  |  | 3928 |  |  |  |
| AGRGRLVRAKLAAALE [Clone-5] | 0.4 | 0.0 | 0.1 | 5785 | 0.2 | 0.3 | 23.9 |
| AGVGRLRRAKLAAALE [Clone-1] | 0.9 | 0.2 | 0.9 | 3259 | 1.0 | 1.4 | 2.3 |
| GRLTRVR [Clone-46] | 0.5 | 0.1 | 0.5 | 115 | 0.9 | 0.9 | 1.9 |
| RRLVRVA [Clone-35] | 0.3 | 0.1 | 0.4 | 1223 | 0.6 | 0.9 | 1.4 |
| CRGVLRRAKLAAALE [Clone-2] | 0.4 | 0.1 | 0.4 | 5955 | 0.7 | 0.9 | 1.6 |
| RGRLVRAK [Modified clone-5] | 0.3 | 0.2 | 0.1 |  | 0.5 | 3.0 | 23.8 |
| AVRGRLRVAKLAAALE [Clone-3] | 0.6 | 0.1 | 0.6 |  | 0.8 | 1.0 | 1.3 |
| CAGRGRLVRC [Modified clone-5] | 0.2 | 0.0 | 0.4 |  | 0.1 | 0.4 | 0.9 |
| RGRLVRA [Clone-45] | 0.3 | 0.1 | 0.4 | 737 | 0.8 | 1.8 | 3 |
| GGGGGGG [heptaglycine control phage, reference compound] | 1.0 | 1 | 1.0 |  | 1.0 | 1.0 | 1.0 |
| RGRLRRVE [Clone 44] |  |  |  | 886 |  |  |  |

— article PMC7118115, “Tumor-penetrating peptide for systemic targeting of Tenascin-C” (Scientific Reports, 2020)
